Experimental findings from patent US5663201A, “Desferrioxamine-B salts” (CIBA-GEIGY Corporation, priority 1992, dated 1997) are described below.

The format of series [1] is physicochemical. The note with it: n-octanol/phosphate buffer, pH 7.4. How it is done:
(§1) The partition coefficients of the salts prepared in Examples 1 to 5 between n-octanol and water are determined by the `shake-flask` method of Leo et at, Chem. Rev., 71(6), 525 (1971).
(§2) The n-octanol and aqueous phases are mutually saturated prior to conducting the experiment. The desferrioxamine-B sulphonic acid addition salt is dissolved in the aqueous phase at a concentration of 0.005 mol/l and the partition experiment is performed by shaking the vessel containing the two phases until an equilibrium has been achieved. […] After equilibrium has been achieved, the sample is centrifuged to enable phase separation. Both organic and aqueous phases are analysed for desferrioxamine-B content via extraction of an appropriate aliquot, quenching with an aqueous (for assay of the aqueous phase) or methanolic (for assay of the n-octanol phase) solution of FeCl3, and measurement of the absorption of the characteristic ferrioxamine-B chelate at ca. 450 nm. Respective calibration plots (absorbance vs. concentration of desferrioxamine-B sulphonic acid salt) for the assay of both aqueous and organic phases show a linear response over the concentration range studied. The results obtained are as follows:
The partition coefficients of the salts prepared in Examples 1 to 5 between n-octanol and an aqueous phosphate buffer at pH7.4 having an ionic strength of 0.31 mol/l are determined using the procedure of Examples 6-10. The results obtained are as follows:
The use of n-octanol/aqueous media partition coefficients as a model for the lipophilicity of drugs is well established (see the abovementioned Leo et al reference). The aqueous phase in Examples 11 to 15 simulates physiological conditions.

The format of series [2] is physicochemical. The conditions noted are these: n-octanol/water, 5000 µM. The method, then:
as §1
as §2, with “follows: […]” for “follows:”

For series [3], the system named is Daudi cell line (B-cell lymphoma). The series is described as follows: iron-chelation bioassay: growth inhibiting effect on cells through iron removal, [3H] Thymidine uptake. It is filed as cell-based. The note with it: 72 hours, Control (0 μM): Ex 18 22297, Ex 19 23897, listed as decanesulphonate. How it is done: The iron-chelating properties of salts of the invention in a biological system are determined by means of a bioassay in which the growth inhibiting effect of the salts on cells through iron removal is measured by the uptake of radioactively labelled thymidine into the cells. The bioassay is carried out using a Daudi cell line (B-cell lymphoma), a Roswell Park Memorial Institute (RPMI) 1640 medium containing 1 µM ferric citrate and supplements as low iron washing medium and RPM11640 together with 5% by weight of foetal calf serum as passaging medium.
The cells are fed 24 hours before use. They are washed twice in the low iron washing medium to remove any excess iron and diluted with this medium to a concentration of 0.2×10^6 cells/0.180 ml. To 0.180 ml aliquots are added 0.02 ml of solutions of the desferrioxamine-B salts under test in phosphate-buffered saline (PBS) to give concentrations ranging from a Control containing no salt to a […] solution. The cells are then incubated at 37° C. in an atmosphere containing 5% by volume of carbon dioxide for 72 hours, being pulsed for the last 8 hours of that time with labelled [^3 H] Thymidine at 5 micro Ci/ml. The resulting cells are harvested and their radioactive disintegrations are counted for 10 minutes. The results are shown in the table below as the average of 4 separate experiments (except the Control result in Example 18 which is the average of 3 separate experiments).

Series [4] can be described thus: intrinsic dissolution of tablets, Langenbucher flow-through apparatus. It is filed as physicochemical. The note with it: water, 25° C., listed as decanesulphonate. The method, then: Tablets are prepared from the salts of Examples 1 and 4 by compressing a mixture of 99 parts of the salt and 1 part of magnesium stearate in a 13mm die for 2 minutes under a pressure of 4×10^5 kPa. The intrinsic dissolution rates of the tablets are determined using a Langenbucher flow-through apparatus, with water at 25° C. as the dissolution medium. The amount of desferrioxamine-B dissolved in the medium is measured at intervals using a spectrophotometric assay at 215 nm.

Where a name gives a salt, the structure may show the parent alone. Read-outs that look alike come from different tables or passages of the source.

In the case of `CC(=O)N(O)CCCCCNC(=O)CCC(=O)N(O)CCCCCNC(=O)CCC(=O)N(O)CCCCCN` [Example 1, decane-1-sulphonate/salt of desferrioxamine-B], the “Partition Coefficient” value in series [1] stood at 0.060; in series [2], 0.366. Further, the “Disintegrations Per Minute ([3H] Thymidine uptake)” value in series [3] (0.5 μM salt) is recorded as 23603 Disintegrations Per Minute; in series [3] (1 μM salt) it was 14161 Disintegrations Per Minute; in series [3] (2 μM salt) it was 6847 Disintegrations Per Minute; in series [3] (3 μM salt), 6599 Disintegrations Per Minute; in series [3] (4 μM salt), 5445 Disintegrations Per Minute; in series [3] (5 μM salt), 5139 Disintegrations Per Minute. The “Disintegrations Per Minute ([3H] Thymidine uptake)” value in series [3] (6 μM salt) is on record as 4382 Disintegrations Per Minute; in series [3] (7.5 μM salt), 3262 Disintegrations Per Minute; in series [3] (10 μM salt), 2172 Disintegrations Per Minute; in series [3] (15 μM salt), 1101 Disintegrations Per Minute; in series [3] (20 μM salt), 494 Disintegrations Per Minute. In addition, the “% Desferrioxaine-B salt dissolved” value in series [4] (1 min) turned out to be 1.01%; in series [4] (2 min), 1.65%; in series [4] (5 min) it was 2.90%; in series [4] (10 min) it was 4.67%; in series [4] (15 min) it was 6.17%; in series [4] (20 min), 7.50%. Besides, the “% Desferrioxaine-B salt dissolved” value in series [4] (30 min) is 9.97%; in series [4] (50 min) it was 14.21%; in series [4] (75 min), 18.80%; in series [4] (100 min) it was 22.92%; in series [4] (125 min), 26.62%; in series [4] (150 min) it was 30.13%. Moreover, the “% Desferrioxaine-B salt dissolved” value in series [4] (175 min) stood at 33.49%; in series [4] (200 min), 36.85%; in series [4] (225 min) it was 39.97%; in series [4] (250 min), 42.94%; in series [4] (275 min), 45.87%; in series [4] (300 min) it was 48.81%.

Take `CC(=O)N(O)CCCCCNC(=O)CCC(=O)N(O)CCCCCNC(=O)CCC(=O)N(O)CCCCCN` [Example 2, butane-1-sulphonate salt of desferrioxamine-B]: the “Partition Coefficient” value in series [1] was found to be 0.006; in series [2], 0.008.

Regarding `CC(=O)N(O)CCCCCNC(=O)CCC(=O)N(O)CCCCCNC(=O)CCC(=O)N(O)CCCCCN` [Example 3, hexane-1-sulphonate salt of desferrioxamine-B], the “Partition Coefficient” value in series [1] amounted to 0.010; in series [2], 0.020.

Regarding `CC(=O)N(O)CCCCCNC(=O)CCC(=O)N(O)CCCCCNC(=O)CCC(=O)N(O)CCCCCN` [Example 5, dodecane-1-sulphonate salt of desferrioxamine-B], the “Partition Coefficient” value in series [1] amounted to 0.028; in series [2], 0.450.
